{"source": "patent US8173607B2", "about": "“Promoter for the production of hyaluronic acid containing ginsenoside compound K” (Amorepacific Corporation, priority 2002, dated 2012)", "key": {"HaCaT cells": {"system": "HaCaT cells", "assay": "Hyaluronic acid production in cultured HaCaT cells, bHABP immunocytochemical staining", "type": "cell-based, human", "conditions": "1 μM compound K, immunocytochemical method", "experimental": "(§1) HaCaT and HDF cells were washed with PBS then fixed in a fixative with 2% paraformaldehyde(v/v) and 0.5% glutaraldehyde(v/v) at room temperature for 20 min. After fixation, the cells were washed three times for 2 min each with 0.1 M sodium phosphate buffer (pH7.4), then blocked in 1% bovine serum albumin (w/v) containing 0.1% Triton X-100 (v/v) in the same buffer at room temperature for 30 min. Hyaluronan staining was carried out with a specific probe of biotinylated hyaluronan binding protein (bHABP) (Seikagaku, Tokyo, Japan). The bHABP probe, diluted to 5 μg/ml in 3% bovine serum albumin (w/v), was added to the fixed cells and was incubated overnight at 4° C. After washing, avidin-fluorescein isothocyanate (FITC) was added.\n(§2) HaCaT cells (FIG. 3a, FIG. 3b) and HDF cells (FIG. 3c, FIG. 3d) were cultured in the presence of 1 μM compound K (FIG. 3b, FIG. 3d) or in the absence of compound K (FIG. 3a, FIG. 3c)."}, "HAS1": {"system": "HAS1", "assay": "Quantitative RT-PCR of HAS1 mRNA in HaCaT cells", "type": "cell-based, human", "conditions": "1 μM compound K, 24 or 48 hours", "experimental": "(§3) The cells were cultured in Dulbecco's modified Eagle's medium (DMEM) supplemented with 10% fetal bovine serum (HyClone), sodium bicarbonate (3.6 g/l) and antibiotics of streptomycin (100 μg/ml) and penicillin (100 U/ml) (Life Technologies, Inc.) at 37° C. in a humidified atmosphere containing 5% CO2 and 95% air. The culture was changed with fresh medium every 3 days. On reaching the maximum cell-density, the cells were recultured at a 1:5 division ratio. 48 hours before treatment with compound K, the cells were seeded into a tissue culture flask at 1×10^5 cells per 75 cm^2 and cultured in the medium with 10% fetal bovine serum for 24 hours. Subsequently, the cells were cultured in the serum-free medium for another 24 hours and then in fresh serum-free medium supplemented with 1 to 5 μM of compound K for 3, 6, 12, 24 or 48 hours. […]\n(§4) HaCaT cells and HDF cells were washed twice with phosphate buffered saline (PBS) (Life Technologies, Inc.), and total cellular RNA was isolated with TRizol® reagent (GibcoBRL Life Technologies, Grand Island, N.Y.) according to manufacturer's instructions. RNA concentration was measured by spectrophotometry and RNA integrity was checked by agarose gel electrophoresis.\n(§5) Quantitated total RNA was reverse transcribed, then RT-PCR was performed using HAS1-, HAS2- and HAS3-specific primers. […]"}, "hairless mouse skin": {"system": "hairless mouse skin", "assay": "Production of hyaluronic acid in hairless mouse skin, bHABP immunohistochemical staining and image analysis", "type": "in vivo", "conditions": "hairless mouse back skin, 1%(w/v) compound K solution topically", "experimental": "Male albino Hos:hr-1 mice, 30 weeks old, were purchased from Biogenomics (Seoul, Korea) and had unrestricted access to standard rodent chow and water. After one week of acclimation under controlled conditions of 24±2° C. and 55±10% humidity, 200 μl of 1%(w/v) compound K solution in the vehicle (1,3-BG:ethanol-7:3) was topically applied onto the back of the mouse two times for 2 days. 24 hours after the final administration, each skin sample was collected.\nHyaluronan staining was carried out with bHABP(Seikagaku). Each skin sample was fixed with 2% formaldehyde and 0.5% glutaraldehyde in PBS, embedded and sectioned. After deparaffinization, sections were incubated in 0.3% H2O2 in methanol at room temperature for 30 min, washed with PBS, then blocked in 1% bovine serum albumin. Subsequently the sections were incubated in […] bHABP in PBS at 4° C. then, after washing, incubated with streptoavidin-peroxidase, diluted to 1/300 in PBS at room temperature, for 30 min. […]\nStained slides were quantitatively characterized via digital image analysis using ImagePro-Plus (Media Cybernetics, Silver Spring, Md.). […] Staining score is determined by the following formula 1: Intensity of stain X (total stained area/total area) Equation 1\nOne-way ANOVA with post-hog Duncan test was performed using SigmaStat (SPSS Inc., Chicago, Ill.). Data were expressed as the mean±SEM. […]"}, "HDF cells": {"system": "HDF cells", "assay": "Hyaluronic acid production in cultured HDF cells, bHABP immunocytochemical staining", "type": "cell-based, human", "conditions": "1 μM compound K, immunocytochemical method", "experimental": "as §1, §2"}, "HAS2 gene [1]": {"system": "HAS2 gene", "assay": "Quantitative RT-PCR of HAS2 mRNA in fibroblast cell line HDF", "type": "cell-based, human", "conditions": "HDF cells, treatment with compound K for 24 hours, in comparison with no treatment", "experimental": "as §3, §4, §5"}, "HAS2 gene [2]": {"system": "HAS2 gene", "assay": "Quantitative RT-PCR of HAS2 mRNA in keratinocyte cell line HaCaT", "type": "cell-based, human", "conditions": "HaCaT cells; for increase in HAS2 transcription: 1 μM compound K", "experimental": "The cells were cultured in Dulbecco's modified Eagle's medium (DMEM) supplemented with 10% fetal bovine serum (HyClone), sodium bicarbonate (3.6 g/l) and antibiotics of streptomycin (100 μg/ml) and penicillin (100 U/ml) (Life Technologies, Inc.) at 37° C. in a humidified atmosphere containing 5% CO2 and 95% air. The culture was changed with fresh medium every 3 days. On reaching the maximum cell-density, the cells were recultured at a 1:5 division ratio. 48 hours before treatment with compound K, the cells were seeded into a tissue culture flask at 1×10^5 cells per 75 cm^2 and cultured in the medium with 10% fetal bovine serum for 24 hours. Subsequently, the cells were cultured in the serum-free medium for another 24 hours and then in fresh serum-free medium supplemented with 1 to 5 μM of compound K for 3, 6, 12, 24 or 48 hours. As a control, the cells were cultured in the medium supplemented with 0.01% vehicle (dimethylsulfoxide, DMSO). In the control, no effect of DMSO on cell growth and differentiation was observed.\nas §4\nQuantitated total RNA was reverse transcribed, then RT-PCR was performed using HAS1-, HAS2- and HAS3-specific primers. In brief, 4 μg of total RNA was reverse transcribed in 25 μl of reaction mixture containing 2.5 U/μl Superscript II reverse transcriptase (Invitrogen, Carlsbad, Calif.), 1 U/μg RNase inhibitor, 5 mM MgCl2, 50 mM KCl, 10 mM Tris-HCl (pH8.3), 2.5 μM oligo(dT) primers and 1 mM dNTPs. The reaction mixture was gently incubated at 42° C. for 60 min, to be subjected to reverse transcription. Then, the reverse transcriptase was inactivated by heating at 85° C. for 5 min.\nSubsequently, 5 μl of the resulting mixture was subjected to PCR. […]"}, "human skin": {"system": "human skin", "assay": "Clinical trial of skin-care efficacy of emulsion containing compound K", "type": "in vivo", "experimental": "In order to evaluate the efficacy of the cosmetic composition containing compound K, a clinical trial was conducted with forty-nine (49) healthy Korean females aged from 31 to 37 years and having facial wrinkle and fine wrinkle. They were divided into three groups by skin type: normal skin, dry skin and combination skin and used two kinds of oily-water emulsions containing 0.03% compound K or none. Before the trial, all the volunteers were evaluated for facial wrinkle and fine wrinkle with a global photodamage score. All the scores were obtained before use and 4, 8 and 12 weeks after use. Each volunteer applied test samples onto the facial skin twice per day (morning and evening) at their homes, and particularly onto the wrinkles of the eye rims. Skin-care efficacies such as facial wrinkle, fine wrinkle, hydration, elasticity, smoothness, roughness and brightness were evaluated by the volunteers and skin expert inspectors. Difference before and after using topical samples and improvement were determined by photometry evaluation with Camscope® (model DCS-105) and by image analysis of silicon replica with Skin-Visiometer SV 600 (Courage & Khazaka, Germany)."}, "HAS3": {"system": "HAS3", "assay": "Quantitative RT-PCR of HAS3 mRNA in HaCaT cells", "type": "cell-based, human", "conditions": "1 μM compound K, 24 or 48 hours", "experimental": "as §3, §4, §5"}, "[3]": {"conditions": "emulsion with 0.03% compound K, after 8 weeks of use"}}}
{"smiles": "CC(C)=CCC[C@](C)(OCC1OC(CO)C(O)C(O)C1O)C1CC[C@]2(C)C1C(O)CC1C3(C)CCC(O)C(C)(C)C3CCC12C", "note": "(stereo partly drawn) [compound K, 20-O-β-D-glucopyranosyl-20(S)-protopanaxadiol]", "values": [{"measurement": "production of hyaluronic acid in cultured cells", "setting": "HaCaT cells", "result": "increased production of hyaluronic acid was confirmed"}, {"measurement": "effect on HAS1 mRNA level", "setting": "HAS1", "result": "did not influence"}, {"measurement": "hyaluronic acid in skin (immunohistochemical staining)", "setting": "hairless mouse skin", "result": "significantly increased"}, {"measurement": "production of hyaluronic acid in cultured cells", "setting": "HDF cells", "result": "increased production of hyaluronic acid was confirmed"}, {"measurement": "increase in HAS2 gene expression (HAS2 mRNA) versus control", "setting": "HAS2 gene [1]", "result": 2.5, "unit": "times"}, {"measurement": "increase in HAS2 transcription", "setting": "HAS2 gene [2]; 24 hours incubation", "result": "about 3 times"}, {"measurement": "increase in HAS2 transcription", "setting": "HAS2 gene [2]; 48 hours incubation", "result": "about 5 times"}, {"measurement": "increase in HAS2 gene expression (HAS2 mRNA) versus control", "setting": "HAS2 gene [2]; treatment with compound K for 24 hours, in comparison with no treatment", "result": 3, "unit": "times"}, {"measurement": "wrinkle, hydration, elasticity, smoothness and brightness of human skin", "setting": "human skin; compound K-containing topical composition applied onto the human skin", "result": "improved"}, {"measurement": "volunteers answering improvement in skin brightness", "setting": "human skin; emulsion with 0.03% compound K", "result": 68, "unit": "%"}, {"measurement": "volunteers answering improvement in skin elasticity", "setting": "human skin; emulsion with 0.03% compound K", "result": 68, "unit": "%"}, {"measurement": "volunteers answering improvement in skin roughness", "setting": "human skin; emulsion with 0.03% compound K", "result": 94, "unit": "%"}, {"measurement": "volunteers answering improvement in skin smoothness", "setting": "human skin; emulsion with 0.03% compound K", "result": 92, "unit": "%"}, {"measurement": "volunteers answering increase in skin moisturizing capacity", "setting": "human skin; emulsion with 0.03% compound K", "result": 88, "unit": "%"}, {"measurement": "facial wrinkle and fine wrinkle, global photodamage score by skin expert inspectors", "setting": "human skin; emulsion with 0.03% compound K twice per day on facial skin, 12 weeks of use versus initial values and control emulsion", "result": "statistically significant decrease"}, {"measurement": "total wrinkle in skin replica analysis", "setting": "human skin; [3]", "result": "decreased statistically significantly"}, {"measurement": "volunteers giving positive and affirmative estimate", "setting": "human skin; [3]", "result": 76, "unit": "%"}, {"measurement": "volunteers giving positive and affirmative estimate", "setting": "human skin; emulsion with 0.03% compound K, after 12 weeks of use", "result": 92, "unit": "%"}, {"measurement": "effect on HAS3 mRNA level", "setting": "HAS3", "result": "did not influence"}]}
